Consider one sequence from US6989435B2, “Compounds and methods to inhibit or augment an inflammatory response” (Cambridge University Technical Services Ltd., priority 1997, dated 2006).

Test [1] deals with TGFβ1 induced THP-1 migration. Briefly: Trans-well THP-1 migration assay, TGFβ1 as non-chemokine control chemoattractant. Format: cell-based, human. On the procedure:
Any method suitable for counting cells can be used, for example, counting with a hemocytometer, incubation of the cells with MTT (see above), or FACS analysis. A negative control assay is also performed, using TGF-β or another non-chemokine chemoattractant (e.g., IL1β or TNFα). To assess whether the agent is cytotoxic, the same concentrations of agent are incubated with THP-1 cells. Agents which 1) are not cytotoxic at levels which inhibit migration, 2) are ineffective at inhibiting the negative control-induced migration, and 3) reduce or inhibit chemokine-induced THP-1 migration, are agents which fall within the scope of the invention.
For this assay, THP-1 cells were maintained at a density of 4×10^5 cells per ml in RPMI-1640 supplemented with 10% fetal calf serum+20 μM 2-mercaptoethanol. Chemotaxis was induced in a 96-well disposable chemotaxis chamber fitted with a […] polycarbonate filter (PVP free, ChemoTX, Neuroprobe Inc., Cabin John). Twenty-nine μl of chemoattractant (recombinant human chemokine; 50 ng/ml, i.e., 5.9 nM) or control (100 ng/ml TGFβ) was added to the lower compartment of each well. The framed filter was aligned with the holes in the corner of the filter frame and placed over the wells. Five×10^4 THP-1 cells in 25 μl of RPMI-1640 culture media were added to the upper compartment. Peptides were dissolved in Milli Q water and then serially diluted in culture medium. […]
After incubation, the cells were gently removed from the top of the filter with a pipette, 20 μl of 20 mM EDTA in PBS was added into each top well, and the mixture was incubated for 20 minutes at 4° C. […] A standard curve was prepared to accurately quantify the number of THP-1 cells that had migrated. […] Absorbance of converted dye was measured at a wavelength of 595 nm using an ELISA plate reader. The number of cells that had migrated in each well was determined by interpolation of the standard curve.
To investigate the receptor specificity of peptide 3 inhibition, the ED50 was determined for peptide 3(1-12)[MCP-1] […]

Test [2] has as its system chemokine-induced migration of peripheral blood monocytes. Briefly: Chemokine-induced migration of freshly prepared peripheral blood monocytes, each of the four chemokines. The settings on record: 100 μM; peripheral blood monocytes from 3 donors. The format is cell-based, human. On the procedure: Agents may also be screened in a chemotactic assay which employs human neutrophils, eosinophils, mast cells, basophils, platelets, lymphocytes or monocytes. For monocytes, 9 mls of fresh blood are transferred to a tube containing 1 ml of 3.8% sodium citrate, and left at room temperature for 15 minutes. Five mls of this anti-coagulated blood are carefully layered over 3.5 ml Polymorphprep® (Nycomed Pharma, Oslo), and centrifuged at 500 g for 35 minutes per the manufacturer's instructions. The top band at the sample/medium interface contains monocytes. The monocytes are carefully removed with a glass pipette, and reconstituted to the original volume (5 ml). The cells are washed with PBS plus 10% fetal calf serum, and centrifuged at 400 g for 10 minutes. The washing step is repeated three times before the cells are counted. Cells are resuspended at 1×10^7 cells/ml in RPMI-1640+10% fetal calf serum (FCS). The monocytes are cultured for two days at 37° C. in a humidified atmosphere of 5% CO2.
On day 2, the cells are counted, spun down, and reconstituted to 1×10^7 cells/ml in Gey's balanced salt solution+1 mg/ml bovine serum albumin (BSA). […]

For the sequence EICADPKQKWVQ [Peptide 3], the “Extent of inhibition of THP-1 migration at 100 μM, TGFβ1” value in test [1] (Table 4(b), 100 μM peptide, n.s. = no statistically significant inhibition) is given as “n.s”. In addition, the “inhibition of TGF-beta induced THP-1 migration” value in test [1] (even at 100 μM) is listed as “did not significantly inhibit”. For the same sequence, the “inhibition of monocyte migration induced with each of the four chemokines” value in test [2] is more than 95%.
